Reference: patent US11026943B2, “Aminoquinoline derivatives and uses thereof” (UNIVERSITY OF DELHI, priority 2012, dated 2021)

Test: Solubility (solvent listed in compound tables)
Type: physicochemical
[1] = solvents listed for the compound

Row | SMILES | SOLUBILITY [1] | SOLUBILITY (solvent named, Table 3)
1 | OCCCCNc1nccc(NCCCNc2ccnc3cc(Cl)ccc23)n1 [MT1-122] | MeOH, DMSO | –
2 | OCCNc1nccc(NCCCNc2ccnc3cc(Cl)ccc23)n1 [MT1-127] | MeOH, DMSO | –
3 | OCCCCCNc1nccc(NCCCNc2ccnc3cc(Cl)ccc23)n1 [MT1-128] | MeOH, DMSO | –
4 | OCCCCCCNc1nccc(NCCCNc2ccnc3cc(Cl)ccc23)n1 [MT1-132] | MeOH, DMSO | –
5 | Cc1cc(NCCCNc2ccnc3cc(Cl)ccc23)nc(NCCO)n1 [MT1-145] | MeOH, DMSO | –
6 | Cc1cc(NCCCNc2ccnc3cc(Cl)ccc23)nc(NCCCO)n1 [MT1-146] | MeOH, DMSO | –
7 | Cc1cc(NCCCNc2ccnc3cc(Cl)ccc23)nc(NCCCCO)n1 [MT1-147] | MeOH, DMSO | –
8 | Cc1cc(NCCCNc2ccnc3cc(Cl)ccc23)nc(NCCCCCO)n1 [MT1-148] | MeOH, DMSO | –
9 | OCCNc1nccc(NCCCCNc2ccnc3cc(Cl)ccc23)n1 [MT1-156] | MeOH, DMSO | –
10 | OCCCNc1nccc(NCCCCNc2ccnc3cc(Cl)ccc23)n1 [MT1-157] | MeOH, DMSO | –
11 | OCCCCNc1nccc(NCCCCNc2ccnc3cc(Cl)ccc23)n1 [MT1-158] | MeOH, DMSO | –
12 | OCCCCCNc1nccc(NCCCCNc2ccnc3cc(Cl)ccc23)n1 [MT1-162] | MeOH, DMSO | –
13 | OCCCCCCNc1nccc(NCCCCNc2ccnc3cc(Cl)ccc23)n1 [MT1-163] | MeOH, DMSO | –
14 | Cc1cc(NCCNc2ccnc3cc(Cl)ccc23)nc(NCCO)n1 [MT1-185] | MeOH, DMSO | –
15 | Cc1cc(NCCNc2ccnc3cc(Cl)ccc23)nc(NCCCO)n1 [MT1-186] | MeOH, DMSO | –
16 | Cc1cc(NCCNc2ccnc3cc(Cl)ccc23)nc(NCCCCO)n1 [MT1-189] | MeOH, DMSO | –
17 | Cc1cc(NCCNc2ccnc3cc(Cl)ccc23)nc(NCCCCCO)n1 [MT1-190] | MeOH, DMSO | –
18 | Cc1cc(NCCNc2ccnc3cc(Cl)ccc23)nc(NCCCCCCO)n1 [MT1-191] | MeOH, DMSO | –
19 | Cc1cc(NCCCCNc2ccnc3cc(Cl)ccc23)nc(NCCO)n1 [MT1-192] | MeOH, DMSO | –
20 | Cc1cc(NCCCCNc2ccnc3cc(Cl)ccc23)nc(NCCCO)n1 [MT1-193] | MeOH, DMSO | –
21 | Cc1cc(NCCCCNc2ccnc3cc(Cl)ccc23)nc(NCCCCO)n1 [MT1-194] | MeOH, DMSO | –
22 | Cc1cc(NCCCCNc2ccnc3cc(Cl)ccc23)nc(NCCCCCO)n1 [MT1-195] | MeOH, DMSO | –
23 | Cc1cc(NCCCCNc2ccnc3cc(Cl)ccc23)nc(NCCCCCCO)n1 [MT1-196] | MeOH, DMSO | –
24 | Clc1ccc2c(NCCNc3nc(Nc4ccccc4)nc(Nc4ccccc4)n3)ccnc2c1 [SM 129] | – | DMSO
25 | COc1cc(Nc2nc(NC(C)CNc3ccnc4cc(Cl)ccc34)nc(N3CCOCC3)n2)cc(OC)c1 (centres unmarked) [SM 130] | – | DMSO
26 | Clc1ccc2c(NCCNc3nc(Cl)nc(NCCNc4ccnc5cc(Cl)ccc45)n3)ccnc2c1 [SM 133] | – | DMSO
27 | Clc1ccc2c(NCCNc3nc(Cl)nc(Nc4ccccc4)n3)ccnc2c1 [SM 136] | – | DMSO

Row | SMILES | SOLUBILITY [1] | SOLUBILITY (solvent named, Table 3)
28 | CCN(CC)c1nc(Cl)nc(NCCNc2ccnc3cc(Cl)ccc23)n1 [SM 137] | – | DMSO
29 | Clc1ccc2c(NCCNc3nc(N4CCOCC4)nc(N4CCOCC4)n3)ccnc2c1 [SM 142] | – | DMSO
30 | CC(CNc1ccnc2cc(Cl)ccc12)Nc1nc(N2CCOCC2)nc(N2CCOCC2)n1 (centres unmarked) [SM 143] | – | DMSO
31 | Cc1ccccc1Nc1nc(NCCNc2ccnc3cc(Cl)ccc23)nc(Nc2ccccc2C)n1 [SM 144] | – | DMSO
32 | Cc1ccccc1Nc1nc(Nc2ccccc2C)nc(NC(C)CNc2ccnc3cc(Cl)ccc23)n1 (centres unmarked) [SM 146] | – | DMSO
33 | COc1ccc(Nc2nc(NCCNc3ccnc4cc(Cl)ccc34)nc(N3CCOCC3)n2)cc1 [SM 332] | – | DMSO
34 | Fc1ccc(Nc2nc(NCCNc3ccnc4cc(Cl)ccc34)nc(N3CCOCC3)n2)cc1 [SM 334] | – | DMSO
35 | CCc1ccc(Nc2nc(NCCNc3ccnc4cc(Cl)ccc34)nc(N3CCOCC3)n2)cc1 [SM 335] | – | DMSO
36 | Clc1ccc2c(NCCNc3nc(Nc4ccccc4)nc(N4CCOCC4)n3)ccnc2c1 [SM 336] | – | DMSO
37 | COc1ccc(Nc2nc(NCCCNc3ccnc4cc(Cl)ccc34)nc(N3CCOCC3)n2)cc1 [SM 337] | – | DMSO
38 | Fc1ccc(Nc2nc(NCCCNc3ccnc4cc(Cl)ccc34)nc(N3CCOCC3)n2)cc1 [SM 339] | – | DMSO
39 | CCc1ccc(Nc2nc(NCCCNc3ccnc4cc(Cl)ccc34)nc(N3CCOCC3)n2)cc1 [SM 340] | – | DMSO
40 | Clc1ccc2c(NCCCNc3nc(Nc4ccccc4)nc(N4CCOCC4)n3)ccnc2c1 [SM 341] | – | DMSO
41 | OCCNc1nc(NCCCCNc2ccnc3cc(Cl)ccc23)nc(N2CCOCC2)n1 [SM 345] | – | DMSO
42 | OCCCNc1nc(NCCCCNc2ccnc3cc(Cl)ccc23)nc(N2CCOCC2)n1 [SM 349] | – | DMSO
43 | OCCCNc1nc(NCCNc2ccnc3cc(Cl)ccc23)nc(N2CCOCC2)n1 [SM 350] | – | DMSO
44 | OCCCNc1nc(NCCCNc2ccnc3cc(Cl)ccc23)nc(N2CCOCC2)n1 [SM 351] | – | DMSO
45 | OCCNc1nc(NCCNc2ccnc3cc(Cl)ccc23)nc(N2CCOCC2)n1 [SM 352] | – | DMSO
46 | OCCNc1nc(NCCCNc2ccnc3cc(Cl)ccc23)nc(N2CCOCC2)n1 [SM 353] | – | DMSO
47 | COc1ccc(Nc2nc(NCCCCNc3ccnc4cc(Cl)ccc34)nc(N3CCOCC3)n2)cc1 [SM 356] | – | DMSO
48 | Fc1ccc(Nc2nc(NCCCCNc3ccnc4cc(Cl)ccc34)nc(N3CCOCC3)n2)cc1 [SM 357] | – | DMSO
49 | CCc1ccc(Nc2nc(NCCCCNc3ccnc4cc(Cl)ccc34)nc(N3CCOCC3)n2)cc1 [SM 358] | – | DMSO
50 | Clc1ccc2c(NCCCCNc3nc(Nc4ccccc4)nc(N4CCOCC4)n3)ccnc2c1 [SM 359] | – | DMSO
51 | OCCCCNc1nc(NCCNc2ccnc3cc(Cl)ccc23)nc(N2CCOCC2)n1 [SM 360] | – | DMSO
52 | OCCCCNc1nc(NCCCNc2ccnc3cc(Cl)ccc23)nc(N2CCOCC2)n1 [SM 361] | – | DMSO
53 | OCCCCNc1nc(NCCCCNc2ccnc3cc(Cl)ccc23)nc(N2CCOCC2)n1 [SM 362] | – | DMSO
54 | OCCNc1nc(NCCNc2ccnc3cc(Cl)ccc23)nc(N2CCCCC2)n1 [SM 365] | – | DMSO

Row | SMILES | SOLUBILITY [1] | SOLUBILITY (solvent named, Table 3)
55 | OCCCNc1nc(NCCNc2ccnc3cc(Cl)ccc23)nc(N2CCCCC2)n1 [SM 370] | – | DMSO
56 | OCCCNc1nc(NCCCCNc2ccnc3cc(Cl)ccc23)nc(N2CCCCC2)n1 [SM 372] | – | DMSO
57 | OCCCCNc1nc(NCCNc2ccnc3cc(Cl)ccc23)nc(N2CCCCC2)n1 [SM 373] | – | DMSO
58 | OCCCCNc1nc(NCCCCNc2ccnc3cc(Cl)ccc23)nc(N2CCCCC2)n1 [SM 375] | – | DMSO
59 | Cc1cc(NCCCNc2ccnc3cc(Cl)ccc23)nc(Cl)n1 [SM 484A] | – | DMSO
60 | Cc1cc(Cl)nc(NCCCNc2ccnc3cc(Cl)ccc23)n1 [SM 484B] | – | DMSO
61 | Cc1cc(NCCCNc2ccnc3cc(Cl)ccc23)nc(N2CCCCC2)n1 [SM 485] | – | DMSO
62 | Cc1cc(Cl)nc(NCCNc2ccnc3cc(Cl)ccc23)n1 [SM 488B] | – | DMSO
63 | Cc1cc(NCCNc2ccnc3cc(Cl)ccc23)nc(N2CCOCC2)n1 [SM 489] | – | DMSO
64 | Cc1cc(NCCNc2ccnc3cc(Cl)ccc23)nc(N2CCCCC2)n1 [SM 490] | – | DMSO
65 | Cc1cc(NCCNc2ccnc3cc(Cl)ccc23)nc(N2CCN(C)CC2)n1 [SM 491] | – | DMSO
66 | Cc1cc(NCCCNc2ccnc3cc(Cl)ccc23)nc(N2CCOCC2)n1 [SM 493] | – | DMSO
67 | Cc1cc(NCCCNc2ccnc3cc(Cl)ccc23)nc(N2CCN(C)CC2)n1 [SM 494] | – | DMSO
68 | CCN1CCN(c2nc(C)cc(NCCCNc3ccnc4cc(Cl)ccc34)n2)CC1 [SM 497] | – | DMSO
69 | Cc1cc(NCCCCNc2ccnc3cc(Cl)ccc23)nc(Cl)n1 [SM 498A] | – | DMSO
70 | Cc1cc(Cl)nc(NCCCCNc2ccnc3cc(Cl)ccc23)n1 [SM 498B] | – | DMSO
71 | Cc1cc(NCCCCNc2ccnc3cc(Cl)ccc23)nc(N2CCCCC2)n1 [SM 499] | – | DMSO
72 | Cc1cc(NCCCCNc2ccnc3cc(Cl)ccc23)nc(N2CCOCC2)n1 [SM 500] | – | DMSO
73 | Cc1cc(NCCCCNc2ccnc3cc(Cl)ccc23)nc(N2CCN(C)CC2)n1 [SM 501] | – | DMSO
74 | CCN1CCN(c2nc(C)cc(NCCCCNc3ccnc4cc(Cl)ccc34)n2)CC1 [SM 502] | – | DMSO
75 | Cc1cc(NCCCCCCNc2ccnc3cc(Cl)ccc23)nc(Cl)n1 [SM 504A] | – | DMSO
76 | Cc1cc(Cl)nc(NCCCCCCNc2ccnc3cc(Cl)ccc23)n1 [SM 504B] | – | DMSO
77 | Cc1cc(NCCCCCCNc2ccnc3cc(Cl)ccc23)nc(N2CCCCC2)n1 [SM 505] | – | DMSO
78 | Cc1cc(NCCCCCCNc2ccnc3cc(Cl)ccc23)nc(N2CCOCC2)n1 [SM 506] | – | DMSO
79 | Cc1cc(NCCCCCCNc2ccnc3cc(Cl)ccc23)nc(N2CCN(C)CC2)n1 [SM 507] | – | DMSO
80 | Clc1ccc2c(NCCNc3cc(Cl)nc(Cl)n3)ccnc2c1 [SM 695A] | – | DMSO
